# Assay results from patent US20210379158A1, “METHOD FOR PREVENTING OR TREATING HEART FAILURE BY ADMINISTERING A MEDICAMENT CONTAINING AN ANTAGONIST OF CORTICOTROPIN RELEASING HORMONE RECEPTOR 2 (CRHR2)” (RaQualia Pharma Inc., priority 2017, published 2021).
# No end group written: not given here.
# Key:
# Crhr2 [1] = assay: Pressure overload-induced cardiac dysfunction (TAC) in mice, continuous infusion initiated 1 wk after TAC; assay type: in vivo, mouse
# Method: (§1) 8-10-week-old male mice were anesthetized with 50 mg/kg sodium pentobarbital, and osmotic minipumps (Alzet) containing Ucn2 (25, 50, 100 ng/g/day; Peptide Institute) or antisauvagine-30 (100 ng/g/day; Medical & Biological Laboratories) were implanted subcutaneously in the back for 4 wk.
# TAC was performed under anesthesia and intubation. The chest was opened to visualize the aortic arch. The transverse aorta was then ligated between the right innominate and left common carotid arteries against a blunted 24-G needle with a 7-0 suture. The sham procedure was identical except that the aorta was not ligated.
# (§2) Transthoracic echocardiography was performed on mice anesthetized with 50 mg/kg sodium pentobarbital. The left ventricular (LV) end-systolic diameter and the LV end-diastolic diameters were measured to calculate the % LV fractional shortening (% FS) in M-mode using an Acuson Sequoia C-512 (Siemens) with a 15-MHz probe. Systolic blood pressure (SBP) was measured by tail cuff method with an automatic sphygmomanometer (BP98A; Saffron) while the mice were restrained.
# (§3) Mouse plasma Ucn2 and BNP were quantified by a mouse Ucn2 ELISA kit (Yanaihara), and by a BNP Enzyme Immunoassay kit (RayBiotech Inc.), respectively, according to the manufacturer's instructions.
# Tissue samples were embedded in OCT compound (Sakura Finetek) and snap-frozen in liquid nitrogen. Left ventricular myocardium sections (6 μm slices) were stained with Picro-Sirius red with standard protocols and viewed with a BX51 microscope (Olympus). Cardiac fibrosis in 20 random images was quantified in ImageJ software.
# We next investigated whether treatment with the Crhr2 antagonist, antisauvagine-30 (Rühmann et al., 1998, Proc. Natl. Acad. Sci. USA. 95:15264-15269), would attenuate the progression of established cardiac hypertrophy in mice. For this, continuous antisauvagine-30 infusion was initiated 1 wk after TAC surgery (FIG. 19).
# Crhr2 [2] = assay: Continuous Ucn2 infusion through subcutaneous osmotic pump in mice for 4 wk; assay type: in vivo, mouse
# Method: as §1, §2, §3
# To examine the effect of long-term Ucn2 up-regulation in vivo, we implanted mice with osmotic pumps that release Ucn2.
# Crhr2 [3] = assay: Continuous Ucn2 infusion in cardiomyocyte-specific Crhr2 knockout mice and control mice; assay type: in vivo, mouse
# From the text: Crhr2^tm1a(KOMP)Wtsi mice on a C57BL/6 background were generated by the Knock Out Mice Program (KOMP) at the University of California Davis (Davis, Calif.) and Children's Hospital Oakland Research Institute (Oakland, Calif.). Crhr2^tm1a(KOMP)Wtsi mice were bred with mice expressing Flp recombinase to obtain Crhr2 conditional KO mice (Crhr2^flox/flox mice). Crhr2^flox/flox mice were backcrossed at least 10 times to wild-type C57BL/6 genetic background mice. Tamoxifen-inducible, cardiomyocyte-specific Crhr2 knockout mice (cmc-Crhr2-KOs) were generated by intercrossing the αMHC-CreERT2 line to Crhr2^flox/flox mice (Takefuji et al., 2012, Circulation. 126:1972-1982). Cre-mediated recombination of floxed alleles was induced with an intraperitoneal injection of 1 mg tamoxifen dissolved in 100 μl Miglyol for 5 consecutive days. Vehicle-treated mice received Miglyol only, and αMHC-CreERT2+/−-Crhr2^wt/wt mice were used as controls. Experiments were performed 2 wk after the end of induction.
# as §1, §2
# To examine the functional significance of Crhr2 in cardiomyocytes in vivo, we generated mice with tamoxifen-inducible cardiomyocyte-specific Crhr2 deficiency (cmc-Crhr2-KO) by mating αMHC-CreERT2 mice with Crhr2^flox/flox mice.
# [4] = acute intravenous injection; cited from earlier work
Substance,"plasma BNP (Crhr2 [1]; TAC mice, 100 ng/g/day infusion from 1 wk after TAC, day 35, FIG. 22)","cardiac hypertrophy (left ventricular weight/tibia length ratio) (Crhr2 [1]; TAC mice, 100 ng/g/day infusion from 1 wk after TAC, day 35, FIG. 23)","cardiac fibrosis (fibrosis area) (Crhr2 [1]; TAC mice, 100 ng/g/day infusion from 1 wk after TAC, day 35, FIG. 24)","systolic blood pressure (Crhr2 [1]; TAC mice, 100 ng/g/day infusion from 1 wk after TAC, FIG. 20)","cardiac output (left ventricular fractional shortening) (Crhr2 [1]; TAC mice, 100 ng/g/day infusion from 1 wk after TAC, FIG. 21)","left ventricular fractional shortening (Crhr2 [2]; 4 wk Ucn2 infusion 100 ng/g/day, FIG. 8)","systolic blood pressure (Crhr2 [2]; 4 wk Ucn2 infusion 100 ng/g/day, FIG. 9)","blood levels of brain natriuretic peptide (BNP) (Crhr2 [2]; 4 wk Ucn2 infusion 100 ng/g/day, FIG. 10)","cardiac hypertrophy, left ventricular weight to tibia length ratio (Crhr2 [2]; 4 wk Ucn2 infusion 25, 50 or 100 ng/g/day, FIGS. 6 and 7)","circulating Ucn2 levels (Crhr2 [2]; after 4 wk of sustained Ucn2 infusion (25, 50 or 100 ng/g/day), osmotic pump, blood, FIG. 5)","fractional shortening decrease (Crhr2 [3]; cmc-Crhr2-KO mice, 4 wk of continuous Ucn2 infusion 100 ng/g/day, FIG. 13)","Ucn2-induced hypertrophic response (left ventricular weight/tibia length ratio) (Crhr2 [3]; cmc-Crhr2 KO mice, 4 wk Ucn2 100 ng/g/day, FIG. 12)","fractional shortening (Crhr2 [3]; control mice, 4 wk of continuous Ucn2 infusion 100 ng/g/day, FIG. 13)",TAC-induced cardiac dysfunction (Crhr2 [1]; 4 wk of sustained Ucn2 infusion initiating 1 wk after TAC surgery),cardiac contraction [4]
antisauvagine-30,strong reduction,strong reduction,strong reduction,without significantly affecting systolic blood pressure,protected mice from further deterioration of cardiac output,–,–,–,–,–,–,–,–,–,–
"urocortin 2 (VILSLDVPIGLLRILLEQARYKAARNQAATNAQILAHV; ends and bridges not checked; UniProt Q99ML8 73-110, looked up) [Ucn2, Ligand/agonist of Crhr2, obtained from Peptide Institute]",–,–,–,–,–,decrease in left ventricular fractional shortening,without significantly affecting systolic blood pressure,significantly increased,increased left ventricular weight to tibia length ratio in a dose-dependent manner,elevated similar to those observed after TAC,significantly attenuated,failed to show a Ucn2-induced hypertrophic response,decreased fractional shortening,accelerated TAC-induced cardiac dysfunction,accelerate cardiac contraction
